ChEMBL document CHEMBL4382235, “Design, synthesis and biological evaluation of novel 1-phenyl phenanthridin-6(5H)-one derivatives as anti-tumor agents targeting TOPK” (Eur J Med Chem, 2019)
One block for each molecule: values may come before it.

Legend:
[1] = tested on: A549; assay: cells; details: Homo sapiens, A549, 72 h
Description: Antiproliferative activity against human A549 cells after 72 hrs by MTT assay

[2] = tested on: HCT-116; assay: cells; details: Homo sapiens, HCT-116, 72 h
Description: Antiproliferative activity against human HCT116 cells after 72 hrs by MTT assay

[3] = tested on: HCT-15; assay: cells; details: Homo sapiens, HCT-15, 72 h
Description: Antiproliferative activity against human HCT15 cells after 72 hrs by MTT assay

[4] = Toxicity in nude mouse xenografted with human HCT116 cells assessed as body weight loss at 10 to 15 mg/kg, qd administered via gavage for 3 weeks; type: organism-based; details: in vivo, po, 504 h
[5] = Toxicity in nude mouse xenografted with human HCT15 cells assessed as body weight loss at 10 to 15 mg/kg, qd administered via gavage for 3 weeks; type: organism-based; details: in vivo, po, 504 h
[6] = Toxicity in nude mouse xenografted with human SW620 cells assessed as body weight loss at 10 to 15 mg/kg, qd administered via gavage for 3 weeks; type: organism-based; details: in vivo, po, 504 h
[7] = Cmax in Sprague-Dawley rat at 2 mg/kg, iv by LC-MS/MS analysis; type: ADME, organism-based; set-up: dose 2 mg/kg, route intravenous; details: in vivo
[8] = Cmax in Sprague-Dawley rat at 15 mg/kg, po by LC-MS/MS analysis; type: ADME, organism-based; set-up: dose 15 mg/kg, route oral; details: in vivo
[9] = Tmax in Sprague-Dawley rat at 2 mg/kg, iv by LC-MS/MS analysis; type: ADME, organism-based; details: in vivo
[10] = Tmax in Sprague-Dawley rat at 15 mg/kg, po by LC-MS/MS analysis; type: ADME, organism-based; details: in vivo
[11] = AUC (0 to t) in Sprague-Dawley rat at 2 mg/kg, iv by LC-MS/MS analysis; type: ADME, organism-based; details: in vivo
[12] = AUC (0 to 24 hrs) in Sprague-Dawley rat at 15 mg/kg, po by LC-MS/MS analysis; type: ADME, organism-based; set-up: dose 15 mg/kg, time < 24 hr, route oral; details: in vivo
[13] = Clearance in Sprague-Dawley rat at 2 mg/kg, iv by LC-MS/MS analysis; type: ADME, organism-based; details: in vivo
[14] = Volume of distribution at steady state in Sprague-Dawley rat at 2 mg/kg, iv by LC-MS/MS analysis; type: ADME, organism-based; details: in vivo
[15] = Half life in Sprague-Dawley rat at 2 mg/kg, iv by LC-MS/MS analysis; type: ADME, organism-based; details: in vivo
[16] = MRT (0 to t) in Sprague-Dawley rat at 2 mg/kg, iv by LC-MS/MS analysis; type: ADME, organism-based; details: in vivo
[17] = MRT (0 to t) in Sprague-Dawley rat at 15 mg/kg, po by LC-MS/MS analysis; type: ADME, organism-based; details: in vivo
[18] = Oral bioavailability in Sprague-Dawley rat at 15 mg/kg by LC-MS/MS analysis; type: ADME, organism-based; details: in vivo
[19] = tested on: HCT-116; assay: animal or person; details: Mus musculus, HCT-116, po, read-out: TGI
[20] = tested on: HCT-116; assay: animal or person; details: Mus musculus, HCT-116, po, read-out: TGI; remark: listed apart in the source
[21] = tested on: HCT-15; assay: animal or person; details: Mus musculus, HCT-15, po, read-out: TGI
[22] = tested on: HCT-15; assay: animal or person; details: Mus musculus, HCT-15, po, read-out: TGI; remark: listed apart in the source
[23] = tested on: SW-620; assay: animal or person; details: Mus musculus, SW-620, po, read-out: TGI
[24] = tested on: SW-620; assay: animal or person; details: Mus musculus, SW-620, po, read-out: TGI; remark: listed apart in the source

SMILES: C[C@H](c1ccc(-c2c(O)cc(Cl)c3[nH]c(=O)c4c(O)cccc4c23)cc1)N(C)C
IC50 [1]: 516 nM | IC50 [2]: > 1000 nM

SMILES: C[C@@H](N)c1ccc(-c2c(O)cc(Cl)c3[nH]c(=O)c4c(O)cccc4c23)cc1
IC50 [1]: 554 nM | IC50 [2]: 720 nM

SMILES: C[C@@H](CN)c1ccc(-c2c(O)cc(Cl)c3[nH]c(=O)c4c(O)cccc4c23)cc1
IC50 [1]: 103 nM | IC50 [2]: 372 nM

SMILES: Cc1ccc2c(=O)[nH]c3c(C)cc(O)c(-c4ccc([C@@H](C)N)cc4)c3c2c1
IC50 [1]: 120 nM | IC50 [2]: 385 nM | IC50 [3]: 217 nM

SMILES: Cc1cc(O)c(-c2ccc([C@@H](C)N)cc2)c2c1[nH]c(=O)c1c(C)cccc12
IC50 [1]: 187 nM | IC50 [2]: 242 nM | IC50 [3]: 505 nM

SMILES: Cc1cc(O)c(-c2ccc([C@@H](C)N(C)C)cc2)c2c1[nH]c(=O)c1c(O)cccc12
IC50 [1]: 128 nM | IC50 [2]: 396 nM | IC50 [3]: 162 nM

SMILES: Cc1cc(O)c(-c2ccc([C@@H](C)CN)cc2)c2c1[nH]c(=O)c1sccc12
IC50 [1]: 19.5 nM | IC50 [2]: 18.9 nM | IC50 [3]: 187 nM

SMILES: Cc1cc(O)c(-c2ccc([C@@H](C)CN)cc2)c2c1[nH]c(=O)c1ccccc12
IC50 [1]: 78.7 nM | IC50 [2]: 114 nM | IC50 [3]: 365 nM

SMILES: Cc1cc(O)c(-c2ccc([C@@H](C)CN(C)C)cc2)c2c1[nH]c(=O)c1ccccc12
IC50 [1]: 264 nM | IC50 [2]: 299 nM | IC50 [3]: 600 nM

SMILES: Cc1cc(O)c(-c2ccc([C@@H](C)CN)cc2)c2c1[nH]c(=O)c1c(C)cccc12
IC50 [1]: 25.9 nM | IC50 [2]: 75.8 nM | IC50 [3]: 301 nM

SMILES: Cc1ccc2c(=O)[nH]c3c(C)cc(O)c(-c4ccc([C@@H](C)CN(C)C)cc4)c3c2c1
IC50 [1]: 466 nM | IC50 [2]: 385 nM | IC50 [3]: 501 nM

Continued, in another order:

IC50 [1]: 360 nM | IC50 [2]: 468 nM | IC50 [3]: 257 nM
SMILES: Cc1cc(O)c(-c2ccc([C@@H](C)N)cc2)c2c1[nH]c(=O)c1sccc12

IC50 [1]: 554 nM | IC50 [2]: 534 nM
SMILES: C[C@@H](CN(C)C)c1ccc(-c2c(O)cc(Cl)c3[nH]c(=O)c4c(O)cccc4c23)cc1

IC50 [1]: 60.3 nM | IC50 [2]: 156 nM | IC50 [3]: 327 nM
SMILES: Cc1ccc2c(=O)[nH]c3c(C)cc(O)c(-c4ccc([C@@H](C)CN)cc4)c3c2c1

IC50 [1]: 437 nM | IC50 [2]: 564 nM
SMILES: NCC1(c2ccc(-c3c(O)cc(Cl)c4[nH]c(=O)c5c(O)cccc5c34)cc2)CC1

IC50 [1]: > 1000 nM | IC50 [2]: > 1000 nM
SMILES: Cc1ccc2c(c1)c(=O)[nH]c1c(C)cc(O)c(-c3ccc([C@@H](C)N(C)C)cc3)c12

IC50 [1]: 110 nM | IC50 [2]: 438 nM | IC50 [3]: > 1000 nM
SMILES: Cc1cc(O)c(-c2ccc([C@@H](C)CN)cc2)c2c1[nH]c(=O)c1c(F)cccc12

IC50 [1]: > 1000 nM | IC50 [2]: 950 nM
SMILES: Cc1cc(O)c(-c2ccc(C3(CN(C)C)CC3)cc2)c2c1[nH]c(=O)c1ccccc12

IC50 [1]: 211 nM | IC50 [2]: 231 nM | IC50 [3]: 398 nM
SMILES: Cc1cc(O)c(-c2ccc(C3(CN)CC3)cc2)c2c1[nH]c(=O)c1ccccc12

Cmax [7]: 188 ng/mL | Cmax [8]: 251 ng/mL | Tmax [9]: 4.8 min | Tmax [10]: 6.67 h | AUC(0-t) [11]: 564 ng·h/mL | AUC(0-t) at 24 h [12]: 4230 ng·h/mL | CL [13]: 33.9532 mL/min/kg | Vdss [14]: 20.25 L/kg | half-life [15]: 7.02 h | MRT(t) [16]: 3.24 h | MRT last [17]: 10.5 h | bioavailability [18]: 100% | IC50 [1]: 5.41 nM | IC50 [2]: 7.87 nM | IC50 [3]: 31.4 nM
SMILES: Cc1cc(O)c(-c2ccc([C@@H](C)CN)cc2)c2c1[nH]c(=O)c1c(O)cccc12
Activity [4]: Non-Toxic | Activity [5]: Non-Toxic | Activity [6]: Non-Toxic | inhibition in vivo at 10 mg/kg [19]: 53.7% | inhibition in vivo at 15 mg/kg [20]: 75.8% | inhibition in vivo at 10 mg/kg [21]: 42.1% | inhibition in vivo at 15 mg/kg [22]: 78.8% | inhibition in vivo at 10 mg/kg [23]: 72.1% | inhibition in vivo at 15 mg/kg [24]: 79.7%

IC50 [1]: 250 nM | IC50 [2]: 314 nM
SMILES: Cc1cc(O)c(-c2ccc([C@@H](C)N(C)C)cc2)c2c1[nH]c(=O)c1ccccc12

IC50 [1]: 20.4 nM | IC50 [2]: 45 nM | IC50 [3]: 73.1 nM
SMILES: Cc1cc(O)c(-c2ccc([C@@H](C)CN(C)C)cc2)c2c1[nH]c(=O)c1sccc12
inhibition in vivo at 15 mg/kg [20]: 49.4%
